# Results taken from PMC7354631 (Toxins, 2020).
# Where two headings read alike, the source gives them in different places. Marks after values point to notes of the source that are not given here.
# Key:
# [1] = target: T1, human serum albumin (HSA) (Homo sapiens, UniProt P02768); conditions: cited from earlier work
# [2] = target: T1, human serum albumin (HSA); experiment: biochemical; format: binding
# [3] = target: Sudlow’s site I of human serum albumin (HSA) (Homo sapiens, UniProt P02768); format: binding; conditions: for warfarin concentration in the filtrate (displacement from site I): pH 7.4
# [4] = target: T1, human serum albumin (HSA); format: binding
# [5] = tested on: Sudlow’s site II of human serum albumin (HSA); conditions: cited from earlier work
# bovine serum albumin = conditions: cited from earlier work
# [6] = target: T1, human serum albumin (HSA); experiment: biochemical; format: binding; remark: listed apart in the source
# [7] = target: T1, human serum albumin (HSA); format: binding; remark: listed apart in the source
# [8] = Ka (±SEM) (Hyperquad, Figure 3)
# [9] = association constant of ochratoxin–HSA complex (approximate, summary)
# Sudlow’s site I of human serum albumin (HSA), sequence (P02768 25-609): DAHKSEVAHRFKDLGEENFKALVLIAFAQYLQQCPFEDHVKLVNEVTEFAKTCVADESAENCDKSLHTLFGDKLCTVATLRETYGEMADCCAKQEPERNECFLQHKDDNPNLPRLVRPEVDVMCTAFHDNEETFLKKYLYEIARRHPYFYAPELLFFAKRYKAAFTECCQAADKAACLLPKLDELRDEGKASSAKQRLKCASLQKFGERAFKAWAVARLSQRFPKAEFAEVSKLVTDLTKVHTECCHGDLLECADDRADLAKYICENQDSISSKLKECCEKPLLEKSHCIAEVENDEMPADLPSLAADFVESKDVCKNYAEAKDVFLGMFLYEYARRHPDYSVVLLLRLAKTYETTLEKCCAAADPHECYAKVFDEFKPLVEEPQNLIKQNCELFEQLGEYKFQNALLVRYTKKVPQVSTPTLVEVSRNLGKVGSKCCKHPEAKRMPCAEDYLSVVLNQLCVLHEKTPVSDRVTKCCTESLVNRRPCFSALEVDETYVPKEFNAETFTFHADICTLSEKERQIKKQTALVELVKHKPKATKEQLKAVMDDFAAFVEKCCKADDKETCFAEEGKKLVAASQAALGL
# T1 sequence (P02768 25-609): as above
compound,measurement,setting,value
"Cc1cc(O)cc2oc(=O)c3c(O)cc(O)cc3c12 [alternariol, reference compound]",Ka of the complex with HSA,[1],400000 L/mol
"C[C@H]1CCCC(=O)CCC/C=C/c2cc(O)cc(O)c2C(=O)O1 [zearalenone, reference compound]",Ka of the complex with HSA,[1],120000 L/mol
"CC(=O)OC[C@]12C[C@H](OC(=O)CC(C)C)C(C)=C[C@H]1O[C@@H]1[C@H](O)[C@@H](OC(C)=O)[C@@]2(C)[C@]12CO2 [T2, T-2 toxin]",effect of 10% FBS on the mycotoxin-induced viability loss / toxic effect,HepG2 cells,did not affect
same,effect of 40 g/L HSA on the toxic effect of the mycotoxin,HepG2 cells,did not affect
same,relative cytotoxicity,HepG2 cells,considerably higher compared to PAT or DON
same,effect on the fluorescence emission of HSA,[2],did not modify
same,warfarin concentration in the filtrate (displacement from site I),[3],did not alter
same,difference of far-UV CD curves of free HSA and HSA+toxin (secondary structure),[4],no significant difference
same,modification of the near-UV CD spectrum of HSA (245–340 nm),[4],unambiguous and relevant spectral modifications could not be registered
O=c1cc(-c2ccccc2)oc2cc(OS(=O)(=O)O)cc(O)c12 [chrysin-7-sulfate],displacement of naproxen from HSA,[5],statistically significant displacement
"O=C1C=C2C(=CCOC2O)O1 (centres unmarked) [PAT, Patulin]",effect of 10% FBS on the mycotoxin-induced viability loss / toxic effect,HepG2 cells,did not affect
same,effect of 40 g/L HSA on the toxic effect of the mycotoxin,HepG2 cells,did not affect
same,Kd,[2],72500 nM
same,effect on the fluorescence emission of HSA,[2],slightly decreased
same,KSV (Stern–Volmer quenching constant),[2]; pH 7.4,8.23 × 10^3 (±1.12 × 10^3) L/mol
same,warfarin concentration in the filtrate (displacement from site I),[3],did not alter
same,interaction with bovine serum albumin,bovine serum albumin,weak interaction
same,induced CD features on HSA binding,[4],no induced CD features were observed
same,UV spectral changes in the presence of HSA,[4]; pH 7.4,some UV spectral changes could be noticed
same,KSV of the complex with HSA,[1],14000 L/mol
"CC1=C2C(=CO[C@H](C)[C@H]2C)C(O)=C(C(=O)O)C1=O [citrinin, reference compound]",Ka of the complex with HSA,[1],200000 L/mol
O=c1cc(-c2ccccc2)oc2cc(O)cc(O)c12 [chrysin],displacement of naproxen from HSA,[5],statistically significant displacement
"O=c1cc(-c2ccccc2)oc2c(O)c(O)ccc12 [7,8-dihydroxyflavone]",displacement of naproxen from HSA,[5],statistically significant displacement
"CC1=C[C@H]2O[C@@H]3[C@H](O)C[C@](C)([C@@]2(CO)[C@H](O)C1=O)[C@]31CO1 [DON, Deoxynivalenol]",effect of 10% FBS on the mycotoxin-induced viability loss / toxic effect,HepG2 cells,did not affect
same,effect of 40 g/L HSA on the toxic effect of the mycotoxin,HepG2 cells,did not affect
same,effect on the fluorescence emission of HSA,[2],did not modify
same,warfarin concentration in the filtrate (displacement from site I),[3],did not alter
same,spectral position of the n–π* CD band in protein-free buffer vs. high molar excess of HSA,[4]; pH 7.4,practically the same
same,association constant of the complex with HSA,[1],~46000 L/mol
same,quenching effect on HSA,[1],strong quenching effect
"CCOC(=O)[C@H](Cc1ccccc1)NC(=O)c1cc(Cl)c2c(c1O)C(=O)O[C@H](C)C2 [OTC, ochratoxin C]",effect of 10% FBS on the mycotoxin-induced viability loss / toxic effect,HepG2 cells,abolished
same,effect of the mycotoxin on cellular ATP levels in the presence of 40 g/L HSA,HepG2 cells,did not affect
same,effect on the emission signal of HSA at 340 nm,[2],decreased
same,"KSV (±SEM) (Stern–Volmer Plot, Figure 2)",[2]; pH 7.4,0.46 ± 0.06 ×10^6 L/mol
same,HSA concentration enough to achieve complete albumin binding,[6],2 to 3 µM
same,emission signal of the ochratoxin with elevation of HSA concentration,[6],significantly increased
same,Kd,[6]; [8],62.4 nM
same,Kd,[6]; [9],~100 nM
same,location of the high-affinity binding site on HSA,[3],subdomain IIA
same,warfarin concentration in the filtrate (displacement from site I),[3],significantly increased
same,fluorescence anisotropy in the presence of HSA,[7],strongly increased
"C[C@@H]1Cc2ccc(C(=O)N[C@@H](Cc3ccccc3)C(=O)O)c(O)c2C(=O)O1 [OTB, ochratoxin B]",effect of 10% FBS on the mycotoxin-induced viability loss / toxic effect,HepG2 cells,significantly reduced
same,effect of the mycotoxin on cellular ATP levels in the presence of 40 g/L HSA,HepG2 cells,did not affect
same,relative cytotoxicity,HepG2 cells,considerably lower toxicity than OTC
same,effect on the emission signal of HSA at 340 nm,[2],decreased
same,"KSV (±SEM) (Stern–Volmer Plot, Figure 2)",[2]; pH 7.4,0.57 ± 0.05 ×10^6 L/mol
same,HSA concentration enough to achieve complete albumin binding,[6],5 to 7 µM
same,emission signal of the ochratoxin with elevation of HSA concentration,[6],significantly increased
same,Kd,[6]; [8],725 nM
same,Kd,[6]; [9],~1000 nM
same,location of the high-affinity binding site on HSA,[3],subdomain IIA
same,warfarin concentration in the filtrate (displacement from site I),[3],significantly increased
same,fluorescence anisotropy in the presence of HSA,[7],strongly increased
